Calls of active or inactive are those of the source.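 Rule for the calls: active = IC50 below 50 µM against PP5; inactive = the rest.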
Biological target: Serine/threonine-protein phosphatase 5 (Homo sapiens) (UniProt P53041)
Experiment: PP5 inhibition of phosphorylase dephosphorylation, late-stage follow-up, selectivity assay for PP1 inhibitor project, biochemical, radiolabel, glycogen phosphorylase substrate, powder samples (AID 652111)
Details: recombinant PP5c, 32P/33P phosphorylase dephosphorylation, scintillation

Serine/threonine-protein phosphatase 5 (Homo sapiens), sequence (P53041 whole entry, looked up): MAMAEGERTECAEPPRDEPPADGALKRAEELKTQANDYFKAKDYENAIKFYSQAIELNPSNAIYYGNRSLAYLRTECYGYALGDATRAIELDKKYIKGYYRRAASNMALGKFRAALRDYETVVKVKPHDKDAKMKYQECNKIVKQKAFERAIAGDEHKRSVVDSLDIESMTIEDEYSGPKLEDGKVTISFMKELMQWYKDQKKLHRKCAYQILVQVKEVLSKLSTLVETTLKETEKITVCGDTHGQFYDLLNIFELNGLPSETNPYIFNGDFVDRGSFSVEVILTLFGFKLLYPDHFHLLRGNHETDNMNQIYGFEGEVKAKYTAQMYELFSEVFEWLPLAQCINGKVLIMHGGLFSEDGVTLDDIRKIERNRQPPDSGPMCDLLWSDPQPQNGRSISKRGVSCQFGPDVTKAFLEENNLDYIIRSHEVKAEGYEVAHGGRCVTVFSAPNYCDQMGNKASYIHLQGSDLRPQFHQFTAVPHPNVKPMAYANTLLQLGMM

| Compound | IC50 |
| --- | --- |
| N#Cc1c(-c2ccc(Cl)cc2)cc(-c2cccs2)nc1SCC(=O)O | < 50 µM |
| CN1CCN(C(c2ccccn2)c2cc(Cl)c3cccnc3c2O)CC1 (stereo not given) | > 50 µM (inactive) |
| CCn1c2ccccc2c2cc(NC(=O)COC(=O)c3ccc(NC(=O)CC#N)cc3)ccc21 | > 50 µM (inactive) |
| COc1ccc(NC(=O)C2C3CCC(O3)C2C(=O)O)c(OC)c1 (stereo not given) | 4.16 µM |
| CCOC(=O)c1sc2nc3c(SCC(=O)O)cc(C(=O)c4cc(F)ccc4O)cn3c(=O)c2c1C | < 50 µM |
